Assay results from PMC12737022, “Evaluations of Sex Differences in Dosimetry in Rats Following Perfluorohexanesulfonamide (PFHxSA) Oral Exposure” (Toxics, 2025).
Several values for one entry are separate records, joined by “and”; a condition that tells them apart may be missing. Equal values may be shown once. Read-outs that look alike come from different tables or passages of the source.

What was measured:
[1] = design: method as in PMID 31078680; conditions: across both sexes; cited from earlier work
[2] = Liver-to-plasma partitioning (Kp); assay type: in vivo, rat; conditions: for Kp at 120 h: po
Protocol: Liver-to-plasma partitioning (Kp) for PFHxSA was assessed for each sex (SI Text S8, Table 6). There were no sex differences in PFHxSA Kp values. […] Refer to SI Table S15 for Kp results for individual rats. […]
Text S8 Liver-to-Plasma Partitioning Coefficient Calculation
Concentrations (µM) of PFHxSA in liver and plasma were used to calculate experimental liver-to-
plasma (Kp) partitioning values for both sexes across all dose levels using Equation E.
(E) K ௣ = Concentration௢௥௚௔௡Concentration௣௟௔௦௠௔

With `O=S(=O)(O)C(F)(F)C(F)(F)C(F)(F)C(F)(F)C(F)(F)C(F)(F)F` [PFHxS, perfluorohexane sulfonic acid] as the compound, how does the “Liver partitioning summary values” [1] read?
The value was 0.16–0.44.

Which results are given for `NS(=O)(=O)C(F)(F)C(F)(F)C(F)(F)C(F)(F)C(F)(F)C(F)(F)F` [PFHxSA, Perfluorohexanesulfonamide]?
Female Partition Coefficient (Kp), liver-plasma ([2]; PFHxSA 0.1 mg/kg/day oral 5 days, female, individual rats): 0.516 and 0.491 and 0.293 and 0.378; Male Partition Coefficient (Kp), liver-plasma ([2]; PFHxSA 0.1 mg/kg/day oral 5 days, male, individual rats): 0.662 and 0.433 and 0.319 and 0.860 and 0.744; Female Partition Coefficient (Kp), liver-plasma ([2]; PFHxSA 0.3 mg/kg/day oral 5 days, female, individual rats): 0.633 and 0.239 and 0.486 and 0.499 and 0.302; Male Partition Coefficient (Kp), liver-plasma ([2]; PFHxSA 0.3 mg/kg/day oral 5 days, male, individual rats): 0.215 and 0.362 and 0.134 and 0.315 and 0.255; Female Partition Coefficient (Kp), liver-plasma ([2]; PFHxSA 1 mg/kg/day oral 5 days, female, individual rats): 0.197 and 0.224 and 0.122 and 0.325; Male Partition Coefficient (Kp), liver-plasma ([2]; PFHxSA 1 mg/kg/day oral 5 days, male, individual rats): 0.233 and 0.174 and 0.293 and 0.249; Female Partition Coefficient (Kp), liver-plasma ([2]; PFHxSA 3 mg/kg/day oral 5 days, female, individual rats): 0.280 and 0.239 and 0.244; Male Partition Coefficient (Kp), liver-plasma ([2]; PFHxSA 3 mg/kg/day oral 5 days, male, individual rats): 0.193 and 0.153 and 0.235 and 0.105 and 0.244; Female Partition Coefficient (Kp), liver-plasma ([2]; PFHxSA 10 mg/kg/day oral 5 days, female, individual rats): 0.145 and 0.119 and 0.113 (2×); Male Partition Coefficient (Kp), liver-plasma ([2]; PFHxSA 10 mg/kg/day oral 5 days, male, individual rats): 0.249 and 0.178 and 0.194; Female Partition Coefficient (Kp), liver-plasma ([2]; PFHxSA 30 mg/kg/day oral 5 days, female, individual rats): 0.134 and 0.142 and 0.162 and 0.147; Male Partition Coefficient (Kp), liver-plasma ([2]; PFHxSA 30 mg/kg/day oral 5 days, male, individual rats): 0.142 (2×) and 0.145; Female Partition Coefficient (Kp), liver-plasma ([2]; PFHxSA 100 mg/kg/day oral 5 days, female, individual rats): 0.187 and 0.344 and 0.214 and 0.213; Male Partition Coefficient (Kp), liver-plasma ([2]; PFHxSA 100 mg/kg/day oral 5 days, male, individual rats): 0.506 and 0.754 and 0.306 and 0.230 and 0.221; Kp at 24 h ([2]; both sexes, Sprague Dawley (Crl:CD(SD)), rat, liver and plasma, oral, both sexes across all tested doses): 0.13 to 0.6; Kp at 120 h ([2]; female, Sprague Dawley (Crl:CD(SD)), rat, liver and plasma, 0.1 mg/kg/day, PFHxSA 0.1 mg/kg/day oral 5 days, female, individual rats, read-out: Female Partition Coefficient (Kp), liver-plasma): 0.424; Kp at 120 h ([2]; female, Sprague Dawley (Crl:CD(SD)), rat, liver and plasma, 0.3 mg/kg/day, PFHxSA 0.3 mg/kg/day oral 5 days, female rats, mean ± SD, read-out: PFHxSA liver-to-plasma Kp, Female Rats): 0.431 ± 0.16; Kp at 120 h ([2]; female, Sprague Dawley (Crl:CD(SD)), rat, liver and plasma, 1 mg/kg/day, PFHxSA 1 mg/kg/day oral 5 days, female rats, mean ± SD, read-out: PFHxSA liver-to-plasma Kp, Female Rats): 0.21 ± 0.074; Kp at 120 h ([2]; female, Sprague Dawley (Crl:CD(SD)), rat, liver and plasma, 3 mg/kg/day, PFHxSA 3 mg/kg/day oral 5 days, female rats, mean ± SD, read-out: PFHxSA liver-to-plasma Kp, Female Rats): 0.222 ± 0.048; Kp at 120 h ([2]; female, Sprague Dawley (Crl:CD(SD)), rat, liver and plasma, 3 mg/kg/day, PFHxSA 3 mg/kg/day oral 5 days, female, individual rats, read-out: Female Partition Coefficient (Kp), liver-plasma): 0.158; Kp at 120 h ([2]; female, Sprague Dawley (Crl:CD(SD)), rat, liver and plasma, 10 mg/kg/day, PFHxSA 10 mg/kg/day oral 5 days, female rats, mean ± SD, read-out: PFHxSA liver-to-plasma Kp, Female Rats): 0.135 ± 0.03; Kp at 120 h ([2]; female, Sprague Dawley (Crl:CD(SD)), rat, liver and plasma, 10 mg/kg/day, PFHxSA 10 mg/kg/day oral 5 days, female, individual rats, read-out: Female Partition Coefficient (Kp), liver-plasma): 0.183; Kp at 120 h ([2]; female, Sprague Dawley (Crl:CD(SD)), rat, liver and plasma, 30 mg/kg/day, PFHxSA 30 mg/kg/day oral 5 days, female rats, mean ± SD, read-out: PFHxSA liver-to-plasma Kp, Female Rats): 0.148 ± 0.011; Kp at 120 h ([2]; female, Sprague Dawley (Crl:CD(SD)), rat, liver and plasma, 30 mg/kg/day, PFHxSA 30 mg/kg/day oral 5 days, female, individual rats, read-out: Female Partition Coefficient (Kp), liver-plasma): 0.154; Kp at 120 h ([2]; female, Sprague Dawley (Crl:CD(SD)), rat, liver and plasma, 100 mg/kg/day, PFHxSA 100 mg/kg/day oral 5 days, female rats, mean ± SD, read-out: PFHxSA liver-to-plasma Kp, Female Rats): 0.222 ± 0.072; Kp at 120 h ([2]; female, Sprague Dawley (Crl:CD(SD)), rat, liver/plasma, 0.1 mg/kg/day, PFHxSA 0.1 mg/kg/day oral 5 days, female rats, mean ± SD, read-out: PFHxSA liver-to-plasma Kp, Female Rats): 0.42 ± 0.09; Kp at 120 h ([2]; male, Sprague Dawley (Crl:CD(SD)), rat, liver and plasma, 1 mg/kg/day, PFHxSA 1 mg/kg/day oral 5 days, male rats, mean ± SD, read-out: PFHxSA liver-to-plasma Kp, Male Rats): 0.223 ± 0.053; Kp at 120 h ([2]; male, Sprague Dawley (Crl:CD(SD)), rat, liver and plasma, 1 mg/kg/day, PFHxSA 1 mg/kg/day oral 5 days, male, individual rats, read-out: Male Partition Coefficient (Kp), liver-plasma): 0.166; Kp at 120 h ([2]; male, Sprague Dawley (Crl:CD(SD)), rat, liver and plasma, 3 mg/kg/day, PFHxSA 3 mg/kg/day oral 5 days, male rats, mean ± SD, read-out: PFHxSA liver-to-plasma Kp, Male Rats): 0.186 ± 0.058; Kp at 120 h ([2]; male, Sprague Dawley (Crl:CD(SD)), rat, liver and plasma, 10 mg/kg/day, PFHxSA 10 mg/kg/day oral 5 days, male rats, mean ± SD, read-out: PFHxSA liver-to-plasma Kp, Male Rats): 0.189 ± 0.041; Kp at 120 h ([2]; male, Sprague Dawley (Crl:CD(SD)), rat, liver and plasma, 10 mg/kg/day, PFHxSA 10 mg/kg/day oral 5 days, male, individual rats, read-out: Male Partition Coefficient (Kp), liver-plasma): 0.191; Kp at 120 h ([2]; male, Sprague Dawley (Crl:CD(SD)), rat, liver and plasma, 30 mg/kg/day, PFHxSA 30 mg/kg/day oral 5 days, male rats, mean ± SD, read-out: PFHxSA liver-to-plasma Kp, Male Rats): 0.144 ± 0.0075; Kp at 120 h ([2]; male, Sprague Dawley (Crl:CD(SD)), rat, liver and plasma, 30 mg/kg/day, PFHxSA 30 mg/kg/day oral 5 days, male, individual rats, read-out: Male Partition Coefficient (Kp), liver-plasma): 0.156; Kp at 120 h ([2]; male, Sprague Dawley (Crl:CD(SD)), rat, liver and plasma, 100 mg/kg/day, PFHxSA 100 mg/kg/day oral 5 days, male rats, mean ± SD, read-out: PFHxSA liver-to-plasma Kp, Male Rats): 0.403 ± 0.23; Kp at 120 h ([2]; male, Sprague Dawley (Crl:CD(SD)), rat, liver/plasma, 0.1 mg/kg/day, PFHxSA 0.1 mg/kg/day oral 5 days, male rats, mean ± SD, read-out: PFHxSA liver-to-plasma Kp, Male Rats): 0.604 ± 0.22; Kp at 120 h ([2]; male, Sprague Dawley (Crl:CD(SD)), rat, liver/plasma, 0.3 mg/kg/day, PFHxSA 0.3 mg/kg/day oral 5 days, male rats, mean ± SD, read-out: PFHxSA liver-to-plasma Kp, Male Rats): 0.256 ± 0.088
